The source of these data is patent publication US6333311A, “Useful properties of human lactoferrin and variants thereof” (Pharming, priority 1998, dated 2001).

Experiment [1] concerns the target human transferrin (hTF) (Homo sapiens, UniProt P02787). The experiment in a line: Competitive inhibition of hLF binding to solid-phase lipid A, competitor hTF. The following applies: hTF as competitor of 12.5 nM biotinylated hLF binding to immobilized lipid A.
For experiment [2], the target named is T1, human lactoferrin, iron-saturated hLF (Homo sapiens, UniProt P02788).
T1 construct: Human LF was purified from fresh human milk by cation-exchange chromatography; from tissue; host or cells: fresh human milk
T1 sequence (P02788 with tags, fused parts or gaps limits assumed): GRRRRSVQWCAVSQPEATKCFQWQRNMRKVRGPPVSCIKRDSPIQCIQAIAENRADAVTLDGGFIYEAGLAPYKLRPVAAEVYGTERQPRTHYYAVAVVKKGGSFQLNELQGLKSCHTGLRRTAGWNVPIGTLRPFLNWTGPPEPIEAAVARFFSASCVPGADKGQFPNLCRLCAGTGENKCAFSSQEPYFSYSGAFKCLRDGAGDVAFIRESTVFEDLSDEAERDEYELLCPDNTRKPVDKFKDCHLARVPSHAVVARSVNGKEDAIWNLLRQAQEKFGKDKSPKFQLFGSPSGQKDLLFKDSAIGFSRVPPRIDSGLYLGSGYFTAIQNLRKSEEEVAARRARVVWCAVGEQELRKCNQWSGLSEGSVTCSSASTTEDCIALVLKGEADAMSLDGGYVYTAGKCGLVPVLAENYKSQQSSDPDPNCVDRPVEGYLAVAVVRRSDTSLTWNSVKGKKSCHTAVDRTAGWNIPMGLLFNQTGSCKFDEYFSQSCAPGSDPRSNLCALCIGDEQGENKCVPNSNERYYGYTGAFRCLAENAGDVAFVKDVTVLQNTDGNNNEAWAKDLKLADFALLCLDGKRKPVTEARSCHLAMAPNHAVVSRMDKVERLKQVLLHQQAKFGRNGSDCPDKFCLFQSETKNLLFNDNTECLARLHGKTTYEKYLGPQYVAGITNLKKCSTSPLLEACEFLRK
Description: Competitive inhibition of hLF binding to solid-phase lipid A, competitor iron-saturated hLF. The settings on record: concentration of unlabelled iron-saturated hLF giving 50% inhibition of the response of 12.5 nM biotinylated hLF on immobilized lipid A; mean ± SD of at least 4 experiments.

Experiment [3] deals with T2, human lactoferrin, natural hLF (purified from human milk, 3.5% saturated with iron) (Homo sapiens, UniProt P02788).
T2 construct: Human LF was purified from fresh human milk by cation-exchange chromatography; from tissue; host or cells: fresh human milk
T2 sequence (P02788 with tags, fused parts or gaps limits assumed): as above
The experiment in a line: Competitive inhibition of hLF binding to solid-phase lipid A, competitor natural hLF. The settings on record: concentration of unlabelled natural hLF giving 50% inhibition of the response of 12.5 nM biotinylated hLF on immobilized lipid A; mean ± SD of at least 4 experiments.

Chain of human transferrin (hTF) (P02787 20-698): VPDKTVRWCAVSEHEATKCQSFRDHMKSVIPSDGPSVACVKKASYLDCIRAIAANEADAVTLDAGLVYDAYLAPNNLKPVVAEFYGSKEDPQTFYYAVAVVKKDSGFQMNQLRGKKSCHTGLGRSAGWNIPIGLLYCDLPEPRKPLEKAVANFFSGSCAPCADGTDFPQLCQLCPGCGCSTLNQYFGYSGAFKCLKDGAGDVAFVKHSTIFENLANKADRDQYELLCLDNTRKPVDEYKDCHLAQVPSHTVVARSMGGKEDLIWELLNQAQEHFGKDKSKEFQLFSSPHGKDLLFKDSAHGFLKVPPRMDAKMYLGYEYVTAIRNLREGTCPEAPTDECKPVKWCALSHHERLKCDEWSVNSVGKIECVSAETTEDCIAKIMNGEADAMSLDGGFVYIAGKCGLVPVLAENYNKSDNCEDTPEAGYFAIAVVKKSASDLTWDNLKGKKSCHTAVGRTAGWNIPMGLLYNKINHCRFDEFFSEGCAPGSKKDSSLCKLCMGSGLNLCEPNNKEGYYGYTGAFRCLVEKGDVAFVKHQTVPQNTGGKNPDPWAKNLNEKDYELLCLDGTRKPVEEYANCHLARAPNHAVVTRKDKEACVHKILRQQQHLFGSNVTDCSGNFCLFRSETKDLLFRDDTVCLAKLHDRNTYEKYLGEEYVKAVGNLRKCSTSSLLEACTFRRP

As usually defined, the IC50 is the concentration that gives 50% inhibition. Read a high IC50 as lower potency. For Lipid A, in experiment [1], the “IC50 Competitor, hTF” value is reported as “no competition”. Besides, the IC50 in experiment [2] worked out at 1.3 ± 0.4 nM; in experiment [3] it was 1.7 ± 0.5 nM.
